Measured values taken from US9926332B2, “Dihydro-oxazinobenzodiazepine compounds, a process for their preparation and pharmaceutical compositions containing them” (priority 2014, dated 2018).
pEC50, pIC50: −log10 of the molar value. Where two headings read alike, the source gives them in different places.

What was measured:
[1] = molecular target: T1, α2 subunit of the human GABAA receptor in association with the beta2 (short) and gamma2 (long) subunits (Homo sapiens, UniProt P18507+P47869+P47870); test: GABA-induced membrane potential response (FMP dye, FlexStation3) in HEK-293 cells expressing GABAA α2; type: cell-based
T1 construct: expressed in transfected cells; host or cells: HEK-293
Procedure: (§1) The compounds are tested on HEK-293 (Human Embryonic Kidney) cells stably expressing the […] or the α5 subunit of the human GABAA receptor in association with the beta2 (short) and gamma2 (long) subunits, thus forming heteropentameric GABAA receptors. The cells are maintained in the presence of a selection of three antibiotics—neomycin, zeocin and puromycin—in a Dulbecco medium (DMEM) containing 10% (v/v) foetal bovine serum The membrane potential is monitored using the fluorescent blue FMP dye (Molecular Devices), following the instructions of the manufacturer. On the day before the experiment, the cells are transferred to 96-well plates (in a density of 50,000 cells/well). 18-24 h later the cells are washed and incubated with the compounds under test plus the FMP dye. Recording of the fluorescence signal in a FlexStation3 plate reader (Molecular Devices, USA) is started 40 min later. After 30 sec of monitoring baseline fluorescence GABA is added to evoke a fluorescent signal reporting depolarisation of the membrane potential across the plasma membrane. The GABA induced responses are recorded for 90 seconds. Data are calculated by subtracting the average baseline value and computing the area under the curve of the fluorescence signal induced by GABA. The IC50 values for α5 and the EC50 values for α2 of the tested compounds are determined from log concentration versus response curves obtained by non-linear regression using SoftMax Pro software (Molecular Devices, USA).

[2] = molecular target: T2, α5 subunit of the human GABAA receptor in association with the beta2 (short) and gamma2 (long) subunits (Homo sapiens, UniProt P18507+P31644+P47870); test: GABA-induced membrane potential response (FMP dye, FlexStation3) in HEK-293 cells expressing GABAA α5; type: cell-based
T2 construct: expressed in transfected cells; host or cells: HEK-293
Procedure: as §1

[3] = molecular target: T3, α1 subunit of the human GABAA receptor in association with the beta2 (short) and gamma2 (long) subunits (Homo sapiens, UniProt P14867+P18507+P47870); test: GABA-induced membrane potential response (FMP dye, FlexStation3) in HEK-293 cells expressing GABAA α1; type: cell-based
T3 construct: expressed in transfected cells; host or cells: HEK-293

mice [4] = test: Novel object recognition test in mice; type: in vivo; conditions: i.p. administration, FIG. 1 and FIG. 2
Text: FIG. 1 and FIG. 2. […] Mean values±S.E.M. (n=8-11/group); Dunnett test following ANOVA (*:p<0.05, **:p<0.01, ***:p<0.001). Discrimination index: Duration of new object exploration (s)−Duration of familiar object exploration (s)/Duration of new object exploration (s)+Duration of familiar object exploration (s).
The novel object recognition test evaluates the ability of mice to detect novelty in an otherwise familiar environment. Subsequent a short exploratory period, mice are unable to discriminate between the familiar and the new object 24 hours later. […] Enhancement of the discrimination index is considered as a procognitive effect. The results are illustrated in FIG. 1 and FIG. 2.

rats = test: Social interaction test in rats; type: in vivo; conditions: i.p. administration, FIG. 6
Text: FIG. 6. […] Mean values±S.E.M. (n=12/group) Kruskal-Wallis ANOVA followed by Mann-Whitney U test: control vs. compound-treated groups (**:p<0.05).
The social interaction test is a model used to measure anxiolytic or anxiogenic behaviour in rodents. When a pair of unfamiliar rats is placed together in the open field the animals show specific social behaviours (sniffing, following, grooming, crawling over and under other rats). Anxiolytic compounds such as benzodiazepines increase in the time spent with social interactions. In our experiment rats were submitted to the social interaction test of anxiety 30 min after drug treatment. The social interaction test consisted of 10 min of social encounters between two animals that received the same pharmacological treatment. The results are illustrated in FIG. 6.

mice [5] = test: Prepulse inhibition test in mice, PCP-induced PPI disruption; type: in vivo; conditions: i.p. administration, FIG. 4
Text: FIG. 4. […] Mean values±S.E.M. (n=10-12/group) Student's t-test: vehicle vs. PCP-treated group (***p<0.001) Dunnett's test following ANOVA: PCP-treated vs. PCP+compound treated groups (#:p<0.05).
The startle reaction of a healthy rodents and humans to a strong acoustic stimulus is reduced by the prior presentation of a weak stimulus. The effect of the weak stimulus on the startle response has been termed prepulse inhibition (PPI). Reduced prepulse inhibition is a hallmark feature of attention-processing (sensorimotor gating) deficits in patients with schizophrenia and other psychotic disorders. Acute administration of phencyclidine (PCP), an antagonist of N-methyl D-aspartate (NMDA)-type glutamate receptors, disrupts PPI in rodents and this effect can be prevented by clinically effective antipsychotics. The results are illustrated in FIG. 4.

mice [6] = test: Light-dark test in mice; type: in vivo; conditions: i.p. administration, FIG. 5
Procedure: FIG. 5. […] Mean values±S.E.M. (n=11-20/group) Student's t-test: vehicle vs. Diazepam-treated group (*p<0.05) Dunnett test following ANOVA: vehicle-treated vs. compound-treated groups (#:p<0.05).
The light-dark apparatus contains a light (brightly illuminated) and a dark compartment. A small opening connects the two parts. During the 5 minutes test mice were placed individually in the light compartment and allowed to explore the entire apparatus. The activity of animals was measured automatically by interruptions of horizontal and vertical infrared beams. An increase of time spent in the light area (increase in light horizontal time) is interpreted as an anxiolytic effect. The results are illustrated in FIG. 5.

[7] = HEK 293 cells expressing GABAA α5, expressed as % of GABA EC50, read-out: α5 IC50
[8] = HEK 293 cells expressing GABAA α1, expressed as % of GABA EC50, read-out: α1 IC50

T2 sequence (P31644 32-462): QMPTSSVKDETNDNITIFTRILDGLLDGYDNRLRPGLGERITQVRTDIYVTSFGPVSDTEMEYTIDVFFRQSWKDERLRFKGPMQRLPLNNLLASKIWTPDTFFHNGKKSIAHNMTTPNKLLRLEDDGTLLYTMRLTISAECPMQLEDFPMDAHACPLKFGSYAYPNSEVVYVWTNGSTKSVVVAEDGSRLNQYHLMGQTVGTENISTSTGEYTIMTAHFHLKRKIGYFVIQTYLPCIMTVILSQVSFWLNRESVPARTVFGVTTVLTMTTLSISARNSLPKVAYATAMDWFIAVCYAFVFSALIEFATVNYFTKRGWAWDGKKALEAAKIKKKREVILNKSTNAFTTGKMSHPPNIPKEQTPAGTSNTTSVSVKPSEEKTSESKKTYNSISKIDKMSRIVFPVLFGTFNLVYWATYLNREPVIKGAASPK
T2 sequence (P47870 26-474 isoform P47870-1 partner limits assumed): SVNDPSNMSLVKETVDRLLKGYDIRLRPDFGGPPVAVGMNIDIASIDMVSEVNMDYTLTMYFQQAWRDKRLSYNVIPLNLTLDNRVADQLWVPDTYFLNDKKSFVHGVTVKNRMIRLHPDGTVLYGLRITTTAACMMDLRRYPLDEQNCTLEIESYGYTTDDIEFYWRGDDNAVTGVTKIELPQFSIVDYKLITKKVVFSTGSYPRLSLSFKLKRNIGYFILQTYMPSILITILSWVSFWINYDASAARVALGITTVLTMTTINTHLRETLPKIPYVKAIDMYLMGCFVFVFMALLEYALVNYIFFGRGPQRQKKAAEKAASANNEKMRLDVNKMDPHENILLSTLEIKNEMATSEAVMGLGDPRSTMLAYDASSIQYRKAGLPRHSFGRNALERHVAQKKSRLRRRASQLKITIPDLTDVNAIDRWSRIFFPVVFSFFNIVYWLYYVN
T2 sequence (P18507 40-475 partner): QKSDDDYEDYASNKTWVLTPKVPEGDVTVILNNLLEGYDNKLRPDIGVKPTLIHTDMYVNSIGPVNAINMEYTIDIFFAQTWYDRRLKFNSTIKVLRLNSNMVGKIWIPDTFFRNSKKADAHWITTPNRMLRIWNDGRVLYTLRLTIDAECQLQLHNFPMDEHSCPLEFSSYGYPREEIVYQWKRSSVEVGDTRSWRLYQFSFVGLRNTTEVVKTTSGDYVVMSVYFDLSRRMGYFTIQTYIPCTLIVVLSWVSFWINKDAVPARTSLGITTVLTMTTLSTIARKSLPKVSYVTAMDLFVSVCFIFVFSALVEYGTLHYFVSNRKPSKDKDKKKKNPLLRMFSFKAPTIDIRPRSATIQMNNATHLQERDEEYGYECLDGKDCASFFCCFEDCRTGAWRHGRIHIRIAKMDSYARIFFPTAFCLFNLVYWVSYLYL
T3 sequence (P14867 28-456): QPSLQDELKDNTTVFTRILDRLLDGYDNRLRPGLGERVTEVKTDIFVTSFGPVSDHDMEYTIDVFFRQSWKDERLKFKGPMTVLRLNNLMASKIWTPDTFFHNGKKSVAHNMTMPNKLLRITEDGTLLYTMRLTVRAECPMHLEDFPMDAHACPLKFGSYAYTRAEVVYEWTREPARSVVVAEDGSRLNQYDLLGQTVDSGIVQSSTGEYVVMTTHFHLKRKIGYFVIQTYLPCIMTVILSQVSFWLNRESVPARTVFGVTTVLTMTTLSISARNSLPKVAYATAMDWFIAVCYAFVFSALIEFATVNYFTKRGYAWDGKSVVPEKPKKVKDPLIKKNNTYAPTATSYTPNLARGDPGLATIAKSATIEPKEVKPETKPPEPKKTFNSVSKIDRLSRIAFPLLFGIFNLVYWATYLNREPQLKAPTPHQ
T3 sequence (P47870 26-474 isoform P47870-1 partner limits assumed): as the sequence (P47870 26-474 isoform P47870-1 partner limits assumed) above
T3 sequence (P18507 40-475 partner): as the sequence (P18507 40-475 partner) above
T1 sequence (P47869 29-451): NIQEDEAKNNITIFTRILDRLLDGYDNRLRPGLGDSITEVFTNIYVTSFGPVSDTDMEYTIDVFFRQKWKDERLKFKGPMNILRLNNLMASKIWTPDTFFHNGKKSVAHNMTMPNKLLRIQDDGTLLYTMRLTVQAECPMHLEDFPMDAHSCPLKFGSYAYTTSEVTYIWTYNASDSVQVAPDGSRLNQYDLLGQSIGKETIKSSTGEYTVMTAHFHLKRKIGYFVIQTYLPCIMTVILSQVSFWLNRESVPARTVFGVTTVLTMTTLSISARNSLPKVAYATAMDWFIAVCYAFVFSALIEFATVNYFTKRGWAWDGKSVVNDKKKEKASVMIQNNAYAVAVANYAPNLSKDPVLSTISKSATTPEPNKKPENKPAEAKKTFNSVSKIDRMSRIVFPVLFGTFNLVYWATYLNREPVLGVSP
T1 sequence (P47870 26-474 isoform P47870-1 partner limits assumed): as the sequence (P47870 26-474 isoform P47870-1 partner limits assumed) above
T1 sequence (P18507 40-475 partner): as the sequence (P18507 40-475 partner) above

**Q.** With `COc1ccc2oc(C3=NN=C(C)Cc4cc5c(cc43)OC(C)C(=O)N5)c(C)c2c1` (racemic) [Example 2, 6-(5-Methoxy-3-methyl-1-benzofuran-2-yl)-3,9-dimethyl-1,10-dihydro[1,4]oxazino[3,2-h][2,3]benzodiazepin-2(3H)-one] as the molecule, how does the pEC50 [1] read?
**A.** 6.10

**Q.** And the pIC50 [2]?
**A.** 6.10

**Q.** And the pIC50 [3]?
**A.** < 5.00

**Q.** How did the “Procognitive effect (discrimination index) in the object recognition model” value (mice [4]) turn out when `CC1=NN=C(c2sc3ccc(Cl)cc3c2C)c2cc3c(cc2C1)NC(=O)C(C)O3` (centres unmarked) [Example 24, 6-(5-Chloro-3-methyl-1-benzothiophen-2-yl)-3,9-dimethyl-1,10-dihydro[1,4]oxazino[3,2-h][2,3]benzodiazepin-2(3H)-one] was run?
**A.** Procognitive effects

**Q.** What does the source list for `CC1=NN=C(c2oc3ccc(O)cc3c2C)c2cc3c(cc2C1)NC(=O)C(C)O3` (centres unmarked) [Example 14, 6-(5-Hydroxy-3-methyl-1-benzofuran-2-yl)-3,9-dimethyl-1,10-dihydro[1,4]oxazino[3,2-h][2,3]benzodiazepin-2(3H)-one]?
**A.** pEC50 [1]: 6.00; pIC50 [2]: 6.37; pIC50 [3]: 4.86

**Q.** Which “Anxiolytic activity in the social interaction model” value (rats) does the source give for `COc1ccc2oc(C3=NN=C(C)Cc4cc5c(cc43)OC(C)C(=O)N5)c(C)c2c1` (single isomer, unassigned; (+)) [Example 4, (+)-6-(5-Methoxy-3-methyl-1-benzofuran-2-yl)-3,9-dimethyl-1,10-dihydro[1,4]oxazino[3,2-h][2,3]benzodiazepin-2(3H)-one] here?
**A.** Anxiolytic activity

**Q.** And the “Procognitive effect (discrimination index) in the object recognition model” value (mice [4])?
**A.** Procognitive effects

**Q.** Which results are given for `CC1=NN=C(c2sc3cc(Cl)c(F)cc3c2C)c2cc3c(cc2C1)NC(=O)C(C)O3` (centres unmarked) [Example 8, 6-(6-Chloro-5-fluoro-3-methyl-1-benzothiophen-2-yl)-3,9-dimethyl-1,10-dihydro[1,4]oxazino[3,2-h][2,3]benzodiazepin-2(3H)-one]?
**A.** pEC50 [1]: 6.00; pIC50 [2]: 5.52; pIC50 [3]: < 5.00

**Q.** With `CCc1ccc2oc(C3=NN=C(C)Cc4cc5c(cc43)OC(C)C(=O)N5)c(CC)c2c1` (centres unmarked) [Example 13, 6-(3,5-Diethyl-1-benzofuran-2-yl)-3,9-dimethyl-1,10-dihydro[1,4]oxazino[3,2-h][2,3]benzodiazepin-2(3H)-one] as the molecule, how does the pEC50 [1] read?
**A.** 5.96

**Q.** What about the pIC50 [2] of the same molecule?
**A.** 5.89

**Q.** What about the pIC50 [3] of the same molecule?
**A.** < 5.00

**Q.** How did the pEC50 [1] turn out when `CC1=NN=C(c2sc3cc(Cl)ccc3c2C)c2cc3c(cc2C1)NC(=O)C(C)O3` (racemic) [Example 5, 6-(6-Chloro-3-methyl-1-benzothiophen-2-yl)-3,9-dimethyl-1,10-dihydro[1,4]oxazino[3,2-h][2,3]benzodiazepin-2(3H)-one] was run?
**A.** 5.92

**Q.** What about the pIC50 [2, 7] of the same molecule?
**A.** 6.05

**Q.** What about the pIC50 [3, 8] of the same molecule?
**A.** < 5.00

**Q.** With `CC1=NN=C(c2sc3ccc(Cl)cc3c2C)c2cc3c(cc2C1)NC(=O)C(C)O3` (single isomer, unassigned; (+)) [Example 25, (+)-6-(5-Chloro-3-methyl-1-benzothiophen-2-yl)-3,9-dimethyl-1,10-dihydro[1,4]oxazino[3,2-h][2,3]benzodiazepin-2(3H)-one] as the molecule, how does the “Effect in the PCP-induced PPI disruption model” value (mice [5]) read?
**A.** Ameliorating effect

**Q.** `CC1=NN=C(c2oc3ccc(Cl)cc3c2C)c2cc3c(cc2C1)NC(=O)C(C)O3` (centres unmarked) [Example 12, 6-(5-Chloro-3-methyl-1-benzofuran-2-yl)-3,9-dimethyl-1,10-dihydro[1,4]oxazino[3,2-h][2,3]benzodiazepin-2(3H)-one] was tested. Which pEC50 [1] did it give?
**A.** 6.00

**Q.** What about the pIC50 [2] of the same molecule?
**A.** 5.52

**Q.** What about the pIC50 [3] of the same molecule?
**A.** < 5.00

**Q.** What does the source list for `CC1=NN=C(c2sc3cccc(F)c3c2C)c2cc3c(cc2C1)NC(=O)C(C)O3` (centres unmarked) [Example 1, 6-(4-fluoro-3-methyl-1-benzothiophen-2-yl)-3,9-dimethyl-1,10-dihydro[1,4]oxazino[3,2-h][2,3]benzodiazepin-2(3H)-one]?
**A.** pEC50 [1]: 5.46; pIC50 [2]: 6.15; pIC50 [3]: < 5.00

**Q.** `CCc1c(C2=NN=C(C)Cc3cc4c(cc32)OC(C)C(=O)N4)sc2ccc(Cl)cc12` (racemic) [Example 9, 6-(5-Chloro-3-ethyl-1-benzothiophen-2-yl)-3,9-dimethyl-1,10-dihydro[1,4]oxazino[3,2-h][2,3]benzodiazepin-2(3H)-one] was tested. Which pEC50 [1] did it give?
**A.** 6.00

**Q.** And the pIC50 [2, 7]?
**A.** 6.15

**Q.** And the pIC50 [3, 8]?
**A.** < 5.00

**Q.** With `CC1=NN=C(c2sc3ccc(Cl)cc3c2C)c2cc3c(cc2C1)NC(=O)C(C)O3` (single isomer, unassigned; (-)) [Example 26, (−)-6-(5-Chloro-3-methyl-1-benzothiophen-2-yl)-3,9-dimethyl-1,10-dihydro[1,4]oxazino[3,2-h][2,3]benzodiazepin-2(3H)-one] as the molecule, how does the “Anxiolytic activity in Light-dark test (activity in the light compartment)” value (mice [6]) read?
**A.** Anxiolytic activity
